According to ChEMBL document CHEMBL5465560, “Selectivity Literature for EUbOPEN Chemogenomic Library” (2024):

Tests used:
[1] = test system: Tyrosine-protein kinase ABL1 (Homo sapiens), P00519 [E255K]; conditions: at 10 µM
[2] = target: Tyrosine-protein kinase Lck (Homo sapiens, UniProt P06239); test: Selectivity interaction (Millipore kinase profiler) EUB0000124b LCK; conditions: at 10 µM
[3] = target: T1, Myotonin-protein kinase (Homo sapiens) (UniProt Q09013); test: Selectivity interaction (KinomeScan (DiscoverX)) EUB0000618a DMPK; conditions: at 10 µM
T1 sequence (whole entry): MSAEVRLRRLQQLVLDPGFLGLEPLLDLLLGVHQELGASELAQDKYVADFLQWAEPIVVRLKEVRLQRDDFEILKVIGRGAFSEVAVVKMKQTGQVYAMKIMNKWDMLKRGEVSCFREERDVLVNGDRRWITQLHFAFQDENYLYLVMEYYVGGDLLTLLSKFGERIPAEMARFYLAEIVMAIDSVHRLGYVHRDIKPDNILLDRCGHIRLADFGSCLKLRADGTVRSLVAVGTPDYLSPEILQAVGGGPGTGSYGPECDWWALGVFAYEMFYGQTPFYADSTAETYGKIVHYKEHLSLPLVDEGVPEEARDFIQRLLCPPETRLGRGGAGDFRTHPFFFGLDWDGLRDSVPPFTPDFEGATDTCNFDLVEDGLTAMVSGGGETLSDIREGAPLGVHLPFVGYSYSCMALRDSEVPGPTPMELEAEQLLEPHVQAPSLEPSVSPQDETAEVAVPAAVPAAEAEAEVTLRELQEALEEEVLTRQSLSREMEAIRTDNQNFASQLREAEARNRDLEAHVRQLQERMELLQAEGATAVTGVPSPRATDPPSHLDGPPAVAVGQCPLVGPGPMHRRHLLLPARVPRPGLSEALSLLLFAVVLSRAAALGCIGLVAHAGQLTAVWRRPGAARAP

[4] = target: Mitogen-activated protein kinase 6 (Homo sapiens) (UniProt Q16659); test: Selectivity interaction (KinomeScan (DiscoverX)) EUB0001619a MAPK6; conditions: at 1 µM
[5] = target: Tyrosine-protein kinase SYK (Homo sapiens, UniProt P43405); test: Selectivity interaction (KinomeScan (DiscoverX)) EUB0001619a SYK; conditions: at 1 µM
[6] = target: Activin receptor type-1-like (Homo sapiens) (UniProt P37023); test: Selectivity interaction (KinomeScan (DiscoverX)) EUB0000045b ACVRL1
[7] = target: T2, Non-receptor tyrosine-protein kinase TNK1 (Homo sapiens) (UniProt Q13470); test: Selectivity interaction (KinomeScan (DiscoverX)) EUB0000045b TNK1
T2 sequence (whole entry): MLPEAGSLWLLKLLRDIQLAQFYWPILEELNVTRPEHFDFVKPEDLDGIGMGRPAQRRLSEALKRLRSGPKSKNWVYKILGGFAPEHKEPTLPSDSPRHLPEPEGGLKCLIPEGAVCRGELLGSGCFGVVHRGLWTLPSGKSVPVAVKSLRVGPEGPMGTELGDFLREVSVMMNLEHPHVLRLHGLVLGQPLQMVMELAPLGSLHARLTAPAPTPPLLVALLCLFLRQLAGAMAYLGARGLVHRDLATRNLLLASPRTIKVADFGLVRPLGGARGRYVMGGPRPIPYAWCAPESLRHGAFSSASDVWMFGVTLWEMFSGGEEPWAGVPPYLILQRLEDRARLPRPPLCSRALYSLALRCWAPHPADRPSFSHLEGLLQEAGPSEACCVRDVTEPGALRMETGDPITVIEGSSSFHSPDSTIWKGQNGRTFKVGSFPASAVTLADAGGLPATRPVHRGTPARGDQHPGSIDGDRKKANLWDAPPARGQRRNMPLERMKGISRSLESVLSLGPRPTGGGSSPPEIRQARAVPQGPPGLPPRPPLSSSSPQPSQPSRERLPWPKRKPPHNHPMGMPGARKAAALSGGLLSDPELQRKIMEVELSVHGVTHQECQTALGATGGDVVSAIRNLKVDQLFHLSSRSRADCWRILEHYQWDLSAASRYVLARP

[8] = target: Misshapen-like kinase 1 (Homo sapiens, UniProt Q8N4C8); test: Selectivity interaction (KinomeScan (DiscoverX)) EUB0000595a MINK1; conditions: at 10 µM
[9] = target: T3, NUAK family SNF1-like kinase 1 (Homo sapiens) (UniProt O60285); test: Selectivity interaction (Upstate Kinase Profiler service (Millipore)) EUB0000056c NUAK1; conditions: at 1 µM
T3 sequence (whole entry): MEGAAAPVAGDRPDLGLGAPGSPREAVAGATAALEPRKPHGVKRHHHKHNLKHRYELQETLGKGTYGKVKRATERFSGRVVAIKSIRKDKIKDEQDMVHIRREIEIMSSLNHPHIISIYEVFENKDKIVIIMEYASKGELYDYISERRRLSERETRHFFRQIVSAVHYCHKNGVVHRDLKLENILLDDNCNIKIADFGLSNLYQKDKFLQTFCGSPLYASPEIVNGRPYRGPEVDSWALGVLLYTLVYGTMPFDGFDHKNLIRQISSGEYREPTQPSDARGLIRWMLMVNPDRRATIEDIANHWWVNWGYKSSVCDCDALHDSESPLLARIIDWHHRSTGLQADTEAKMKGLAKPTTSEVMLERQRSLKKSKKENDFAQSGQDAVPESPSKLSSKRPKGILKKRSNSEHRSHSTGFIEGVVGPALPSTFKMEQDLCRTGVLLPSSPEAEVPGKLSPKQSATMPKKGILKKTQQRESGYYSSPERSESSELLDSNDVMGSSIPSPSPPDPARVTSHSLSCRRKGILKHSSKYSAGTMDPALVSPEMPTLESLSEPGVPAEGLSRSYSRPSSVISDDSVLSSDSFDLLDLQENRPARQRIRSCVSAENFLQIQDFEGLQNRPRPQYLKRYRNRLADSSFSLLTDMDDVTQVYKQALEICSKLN

[10] = target: Serine/threonine-protein kinase PLK1 (Homo sapiens, UniProt P53350); conditions: at 10 µM
[11] = target: Wee1-like protein kinase 2 (Homo sapiens) (UniProt P0C1S8); conditions: at 10 µM
[12] = target: LIM domain kinase 1 (Homo sapiens) (UniProt P53667); test: Selectivity interaction (Kinase panel (Invitrogen)) EUB0000639a LIMK1; conditions: at 200 nM
[13] = target: Cyclin-dependent kinase 3 (Homo sapiens) (UniProt Q00526); test: Selectivity interaction (KinomeScan (DiscoverX)) EUB0000229b CDK3; conditions: at 10 µM
[14] = target: Mitogen-activated protein kinase kinase kinase 11 (Homo sapiens) (UniProt Q16584); test: Selectivity interaction (KinomeScan (DiscoverX)) EUB0000695a MAP3K11; conditions: at 100 nM
Chain of Mitogen-activated protein kinase kinase kinase 11 (Homo sapiens) (Q16584 whole entry, looked up): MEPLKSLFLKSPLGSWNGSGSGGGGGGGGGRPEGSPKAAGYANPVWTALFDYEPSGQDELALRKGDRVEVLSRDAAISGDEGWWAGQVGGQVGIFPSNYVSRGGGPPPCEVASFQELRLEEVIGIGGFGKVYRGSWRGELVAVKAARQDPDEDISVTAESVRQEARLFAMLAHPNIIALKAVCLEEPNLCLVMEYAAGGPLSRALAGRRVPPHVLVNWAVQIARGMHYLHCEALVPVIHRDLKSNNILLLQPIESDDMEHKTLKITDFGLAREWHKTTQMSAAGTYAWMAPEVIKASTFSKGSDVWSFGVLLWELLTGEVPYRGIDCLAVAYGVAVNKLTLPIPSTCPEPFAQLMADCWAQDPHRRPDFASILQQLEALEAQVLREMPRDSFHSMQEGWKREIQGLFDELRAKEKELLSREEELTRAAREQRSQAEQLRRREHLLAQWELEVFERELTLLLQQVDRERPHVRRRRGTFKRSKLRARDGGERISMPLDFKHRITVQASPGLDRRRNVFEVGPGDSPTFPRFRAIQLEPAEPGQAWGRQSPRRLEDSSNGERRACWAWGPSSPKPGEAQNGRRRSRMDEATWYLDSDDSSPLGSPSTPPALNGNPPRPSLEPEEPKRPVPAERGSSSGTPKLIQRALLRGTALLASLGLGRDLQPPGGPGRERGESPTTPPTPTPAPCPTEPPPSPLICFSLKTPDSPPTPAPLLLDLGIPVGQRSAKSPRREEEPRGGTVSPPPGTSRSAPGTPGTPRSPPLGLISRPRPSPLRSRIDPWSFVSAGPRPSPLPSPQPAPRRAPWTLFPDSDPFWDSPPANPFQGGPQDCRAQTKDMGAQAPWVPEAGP

Chain of Activin receptor type-1-like (Homo sapiens) (P37023 whole entry): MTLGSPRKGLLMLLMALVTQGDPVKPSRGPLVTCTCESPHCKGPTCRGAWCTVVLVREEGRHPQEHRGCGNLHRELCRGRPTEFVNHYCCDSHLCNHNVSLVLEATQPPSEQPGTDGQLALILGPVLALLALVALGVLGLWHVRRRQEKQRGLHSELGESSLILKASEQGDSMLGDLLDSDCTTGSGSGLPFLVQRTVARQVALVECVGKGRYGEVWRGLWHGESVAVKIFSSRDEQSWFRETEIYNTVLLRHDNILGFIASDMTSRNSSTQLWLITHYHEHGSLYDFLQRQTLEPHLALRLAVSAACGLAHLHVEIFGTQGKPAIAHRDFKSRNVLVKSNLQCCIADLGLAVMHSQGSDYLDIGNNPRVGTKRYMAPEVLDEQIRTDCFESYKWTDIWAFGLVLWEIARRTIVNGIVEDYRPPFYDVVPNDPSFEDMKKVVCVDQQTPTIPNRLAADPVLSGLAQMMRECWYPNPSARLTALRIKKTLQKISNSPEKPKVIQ
Chain of Tyrosine-protein kinase ABL1 (Homo sapiens), P00519 [E255K] (P00519 whole entry E255K): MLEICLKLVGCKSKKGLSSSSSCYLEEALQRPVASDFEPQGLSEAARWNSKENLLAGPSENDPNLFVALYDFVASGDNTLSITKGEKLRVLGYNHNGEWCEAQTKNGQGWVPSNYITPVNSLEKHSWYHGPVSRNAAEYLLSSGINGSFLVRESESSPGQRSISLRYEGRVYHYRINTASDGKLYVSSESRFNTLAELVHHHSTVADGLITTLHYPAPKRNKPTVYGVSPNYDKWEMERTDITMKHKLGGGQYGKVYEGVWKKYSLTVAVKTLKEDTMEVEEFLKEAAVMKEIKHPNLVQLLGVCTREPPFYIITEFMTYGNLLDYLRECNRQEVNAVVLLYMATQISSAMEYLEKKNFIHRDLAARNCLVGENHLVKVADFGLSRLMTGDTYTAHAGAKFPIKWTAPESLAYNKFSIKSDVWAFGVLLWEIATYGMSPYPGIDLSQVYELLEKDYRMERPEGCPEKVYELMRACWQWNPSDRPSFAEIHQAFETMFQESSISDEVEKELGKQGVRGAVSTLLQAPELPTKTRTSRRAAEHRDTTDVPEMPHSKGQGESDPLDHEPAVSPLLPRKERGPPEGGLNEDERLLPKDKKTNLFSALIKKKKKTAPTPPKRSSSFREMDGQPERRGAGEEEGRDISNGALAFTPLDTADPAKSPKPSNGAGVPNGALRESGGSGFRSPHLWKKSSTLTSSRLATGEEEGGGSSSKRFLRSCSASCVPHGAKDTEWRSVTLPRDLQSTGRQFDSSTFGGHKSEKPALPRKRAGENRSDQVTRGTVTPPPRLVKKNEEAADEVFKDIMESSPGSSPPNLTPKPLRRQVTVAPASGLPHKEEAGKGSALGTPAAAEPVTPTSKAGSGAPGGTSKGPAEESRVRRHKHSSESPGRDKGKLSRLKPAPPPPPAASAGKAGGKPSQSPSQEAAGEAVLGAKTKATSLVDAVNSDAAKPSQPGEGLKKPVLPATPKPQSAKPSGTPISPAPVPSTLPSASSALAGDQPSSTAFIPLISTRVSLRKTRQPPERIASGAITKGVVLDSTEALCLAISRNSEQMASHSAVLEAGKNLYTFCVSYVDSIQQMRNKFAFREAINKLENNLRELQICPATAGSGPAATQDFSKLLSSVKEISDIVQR
Chain of Cyclin-dependent kinase 3 (Homo sapiens) (Q00526 whole entry, looked up): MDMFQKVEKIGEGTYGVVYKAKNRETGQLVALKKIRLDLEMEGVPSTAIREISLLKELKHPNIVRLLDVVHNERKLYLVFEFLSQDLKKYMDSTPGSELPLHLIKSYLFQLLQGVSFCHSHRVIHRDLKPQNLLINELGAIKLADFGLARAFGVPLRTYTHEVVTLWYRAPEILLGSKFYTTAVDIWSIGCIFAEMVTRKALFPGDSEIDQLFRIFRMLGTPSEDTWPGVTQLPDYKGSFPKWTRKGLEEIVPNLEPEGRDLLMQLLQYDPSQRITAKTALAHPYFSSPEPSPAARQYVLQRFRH
Chain of Tyrosine-protein kinase Lck (P06239 2-509 limits assumed): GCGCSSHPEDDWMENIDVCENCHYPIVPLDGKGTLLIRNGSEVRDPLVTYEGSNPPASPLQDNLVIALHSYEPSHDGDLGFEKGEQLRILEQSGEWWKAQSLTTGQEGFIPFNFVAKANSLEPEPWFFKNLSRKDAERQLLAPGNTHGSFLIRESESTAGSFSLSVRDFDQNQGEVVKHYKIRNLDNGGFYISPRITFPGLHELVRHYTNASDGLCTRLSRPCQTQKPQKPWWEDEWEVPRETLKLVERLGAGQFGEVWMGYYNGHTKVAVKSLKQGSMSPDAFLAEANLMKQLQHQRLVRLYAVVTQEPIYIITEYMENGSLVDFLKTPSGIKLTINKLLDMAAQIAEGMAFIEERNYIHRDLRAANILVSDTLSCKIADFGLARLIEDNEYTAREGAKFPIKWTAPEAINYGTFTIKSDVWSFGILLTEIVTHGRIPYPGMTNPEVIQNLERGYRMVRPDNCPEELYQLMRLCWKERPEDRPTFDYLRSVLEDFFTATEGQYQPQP
Chain of Misshapen-like kinase 1 (Q8N4C8 whole entry, looked up): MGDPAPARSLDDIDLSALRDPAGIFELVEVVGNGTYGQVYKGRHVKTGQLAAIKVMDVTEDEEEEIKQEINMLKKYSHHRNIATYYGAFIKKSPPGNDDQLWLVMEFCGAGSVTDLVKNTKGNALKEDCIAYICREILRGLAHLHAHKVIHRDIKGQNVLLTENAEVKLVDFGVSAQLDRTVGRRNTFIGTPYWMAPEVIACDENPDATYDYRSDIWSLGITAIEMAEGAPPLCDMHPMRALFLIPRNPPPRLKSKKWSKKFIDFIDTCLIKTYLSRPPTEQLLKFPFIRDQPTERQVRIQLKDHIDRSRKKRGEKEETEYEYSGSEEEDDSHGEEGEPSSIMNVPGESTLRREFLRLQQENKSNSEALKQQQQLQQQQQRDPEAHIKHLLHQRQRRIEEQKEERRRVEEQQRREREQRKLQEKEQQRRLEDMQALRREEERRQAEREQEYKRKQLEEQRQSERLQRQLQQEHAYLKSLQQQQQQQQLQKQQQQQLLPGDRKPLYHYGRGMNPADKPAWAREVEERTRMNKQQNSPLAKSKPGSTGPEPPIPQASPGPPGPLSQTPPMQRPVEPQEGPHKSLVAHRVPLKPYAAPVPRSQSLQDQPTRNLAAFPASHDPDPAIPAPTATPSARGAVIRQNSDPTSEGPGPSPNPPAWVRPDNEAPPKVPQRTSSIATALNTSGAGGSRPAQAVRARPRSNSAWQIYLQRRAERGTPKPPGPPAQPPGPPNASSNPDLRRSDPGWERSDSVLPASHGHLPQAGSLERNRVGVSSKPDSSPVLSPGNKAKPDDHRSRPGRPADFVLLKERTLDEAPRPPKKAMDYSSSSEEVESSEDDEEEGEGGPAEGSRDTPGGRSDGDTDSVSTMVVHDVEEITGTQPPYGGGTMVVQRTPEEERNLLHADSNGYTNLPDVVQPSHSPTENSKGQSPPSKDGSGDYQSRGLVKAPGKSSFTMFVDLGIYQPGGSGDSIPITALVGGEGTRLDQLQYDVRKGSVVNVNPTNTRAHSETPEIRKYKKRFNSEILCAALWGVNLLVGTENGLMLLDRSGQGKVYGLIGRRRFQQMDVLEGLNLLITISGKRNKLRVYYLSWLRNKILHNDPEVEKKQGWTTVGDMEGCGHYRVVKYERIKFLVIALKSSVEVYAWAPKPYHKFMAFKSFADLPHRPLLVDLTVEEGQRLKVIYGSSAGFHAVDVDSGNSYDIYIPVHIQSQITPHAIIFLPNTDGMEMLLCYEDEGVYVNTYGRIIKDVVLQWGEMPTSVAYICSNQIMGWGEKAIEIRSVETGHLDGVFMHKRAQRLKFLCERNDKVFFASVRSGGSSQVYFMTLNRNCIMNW

## CCN(CC)CCCCNc1ncc2cc(-c3cc(OC)cc(OC)c3)c(NC(=O)NC(C)(C)C)nc2n1
[1]
  % of control: 100%

## CC(=O)Nc1cccc(-n2c(=O)n(C3CC3)c(=O)c3c(Nc4ccc(I)cc4F)n(C)c(=O)c(C)c32)c1
[2]
  % of control: 110%

## O[C@H]1CC[C@H](Nc2ncc3nc(Nc4c(F)cc(F)cc4F)n([C@H]4CCOC4)c3n2)CC1
[3]
  % of control: 100%

## N#Cc1cccc(-c2c[nH]c3ncnc(N4CCOCC4)c23)c1
[4]
  % of control: 100%
[5]
  % of control: 100%

## C=CC(=O)Nc1cc(-n2c(=O)ccc3cnc4ccc(-c5ccc(NS(C)(=O)=O)cc5)cc4c32)ccc1C
[6]; at 1 µM
  % of control: 100%
[6]; at 10 µM
  % of control: 75%
[7]; at 1 µM
  % of control: 100%
[7]; at 10 µM
  % of control: 100%

## COCC(=O)NC/C=C/c1ccc2ncnc(Nc3ccc(Oc4ccc(C)nc4)c(C)c3)c2c1 [CP-724714]
[8]
  % of control: 77%

## Cc1ccc(-c2ccc3c(ccc4sc5c(c43)NC[C@@H](C)NC5=O)n2)cn1
[9]
  % of inhibition: 35%

## Cc1cc([C@@H](C)Nc2ccccc2C(=O)O)c2nc(N3CCOCC3)cc(=O)n2c1 [AZD-6482]
[10]
  % of control: 100%
[11]
  % of control: 100%

## CC[C@@H]1[C@H](F)C(=O)N[C@@H]1COc1nccc2cc(C(N)=O)c(OC)cc12 [ZIMLOVISERTIB]
[12]
  % of inhibition: 13.2%

## COc1cc(N(C)c2ccnc3ccc(C(F)(F)F)cc23)cc(OC)c1OC
[13]
  % binding: 100%

## Cc1cc(F)c(C(=O)Nc2cccc(-c3nncn3C(C)C)n2)cc1-n1cnc(C2CC2)c1
[14]
  % of control: 79%
